From patent US6127360A, “Diamine derivatives and pharmaceutical containing the same” (Kowa Co., Ltd., priority 1997, dated 2000) come the findings set out here.

Data set [1] has as its target T1, isolated guinea pig ileum (Cavia porcellus, UniProt Q2NNR5).
T1 construct: An isolated guinea pig ileum was cut into about 2 cm lengths; from tissue; host or cells: guinea pig ileum
T1 sequence (Q2NNR5 1-340): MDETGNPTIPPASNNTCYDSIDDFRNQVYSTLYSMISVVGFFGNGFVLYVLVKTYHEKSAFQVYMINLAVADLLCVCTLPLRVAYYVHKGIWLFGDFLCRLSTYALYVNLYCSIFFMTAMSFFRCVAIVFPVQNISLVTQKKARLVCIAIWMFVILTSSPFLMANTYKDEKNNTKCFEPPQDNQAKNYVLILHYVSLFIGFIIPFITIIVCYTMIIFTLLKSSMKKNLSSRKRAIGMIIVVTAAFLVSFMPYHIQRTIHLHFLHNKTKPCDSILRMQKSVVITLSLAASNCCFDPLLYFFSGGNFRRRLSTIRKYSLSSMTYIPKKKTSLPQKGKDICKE
The data set is described as follows: Anti-LTD4 action on isolated guinea pig ileum (LTD4 contraction). In kind it is cell-based. The settings on record: 10^-5 M test compound; contraction caused by 10^-8 M LTD4; read-out: Anti-LTD4 action (inhibition rate). The method, then:
Antihistaminic Action and Anti-LTD4 Action (In vitro Tests)
An isolated guinea pig ileum was cut into about 2 cm lengths. Each ileum piece was suspended in a 20-ml container filled with the Tyrode's buffer. An isotonic contractive response by histamine or LTD4 was recorded on a recorder. The Tyrode's buffer was controlled at 30° C., through which a mixed gas (95%O2 -5%CO2) was bubbled.

The target of the next data set is T2, H1 receptor (Cavia porcellus, UniProt P31389).
T2 construct: guinea pig cerebromembranous protein and a test compound; from tissue; host or cells: guinea pig brain membranes
In words: H1 Receptor Binding Inhibition Test ([3H]mepyramin, guinea pig cerebromembranous protein). The settings on record: read-out: H1 receptor dissociation constant (KD). The method, then:
H1 Receptor Binding Inhibition Test
An ice-cold phosphate buffer was added to terminate the reaction, followed by immediate filtration through a Wattman CF/C filter. The filter was washed twice with 20 ml aliquots of the ice-cold buffer. The radio-activity of the residue was measured by a liquid scintillation counter. From a measurement value obtained without the addition of the test compound and measurements values obtained upon addition of the test compound at various concentrations, the dose-response of the inhibitory action of the test compound was measured and the 50% inhibitory concentration (IC50) was determined. Using the Cheng-Prusoff formula, a dissociation constant (KD) was calculated from the 50% inhibitory concentration (IC50).
In a binding assay, 10^4 M R(-)dimethindene was used for the measurement of a nonspecific binding.

In a further data set the target is T3, LTD4 receptor (Cavia porcellus, UniProt Q2NNR5).
T3 construct: guinea pig pulm-omembranous protein and a test compound; from tissue; host or cells: guinea pig lung membranes
T3 sequence (Q2NNR5 1-340): T1 sequence (Q2NNR5 1-340)
In words: LTD4 Receptor Binding Inhibition Test ([3H]LTD4, guinea pig pulmomembranous protein). The settings on record: read-out: LTD4 receptor dissociation constant (KD). The method, then: LTD4 Receptor Binding Inhibition Test
An ice-cold tris hydrochloride/sodium chloride buffer (10 mM/100 mM, pH 7.5) was added to terminate the reaction, followed by immediate filtration through a Wattman CF/C filter. The filter was washed twice with 20 ml aliquots of the ice-cold buffer. The radioactivity of the residue was measured by a liquid scintillation counter.
In a binding assay, […] LTD4 was used for the measurement of a nonspecific binding.

A further data set has as its target T4, H1 (Mus musculus, UniProt P70174).
T4 construct: from tissue; host or cells: mouse brain homogenate, ex vivo after intraperitoneal dosing
In words: Brain Penetration Test (ex vivo [3H]mepyramin binding in mouse brain). The settings on record: ip; for ED50: peritoneal administration to mouse, brain taken 1 hour after, [3H]mepyramin 0.5 nM, read-out: IC50 (50% inhibitory dose), ex vivo; for selectivity ratio at 1 h: mouse, brain, IC50 (mg/kg)/H1 binding inhibition dissociation constant (nM), read-out: BP index. The method, then:
Described specifically, to a mouse of 20 g to 23 g, a test compound of a given concentration was peritoneally administered. Upon elapsed time of one hour after the administration, the mouse was sacrificed. The brain tissue was taken out, and was then homogenated with a 30 mM Na,K phosphate buffer (pH 7.5) to give 40 ml/g wet weight. […] Subsequent to incubation at 37° C. for 50 minutes, an ice-cold phosphate buffer was added to terminate the reaction. Each of the resulting mixtures was immediately filtered through Wattman CF/C filter. The filter was washed twice with 20 ml aliquots of the ice-cold buffer. The radioactivity of the residue was measured by a liquid scintillation counter. […] A BP index as an index of brain penetration was calculated in accordance with the following formula:
BP index=IC50 (mg/kg)/H1 binding inhibition dissociation constant (nM)

T2 sequence (P31389 whole entry): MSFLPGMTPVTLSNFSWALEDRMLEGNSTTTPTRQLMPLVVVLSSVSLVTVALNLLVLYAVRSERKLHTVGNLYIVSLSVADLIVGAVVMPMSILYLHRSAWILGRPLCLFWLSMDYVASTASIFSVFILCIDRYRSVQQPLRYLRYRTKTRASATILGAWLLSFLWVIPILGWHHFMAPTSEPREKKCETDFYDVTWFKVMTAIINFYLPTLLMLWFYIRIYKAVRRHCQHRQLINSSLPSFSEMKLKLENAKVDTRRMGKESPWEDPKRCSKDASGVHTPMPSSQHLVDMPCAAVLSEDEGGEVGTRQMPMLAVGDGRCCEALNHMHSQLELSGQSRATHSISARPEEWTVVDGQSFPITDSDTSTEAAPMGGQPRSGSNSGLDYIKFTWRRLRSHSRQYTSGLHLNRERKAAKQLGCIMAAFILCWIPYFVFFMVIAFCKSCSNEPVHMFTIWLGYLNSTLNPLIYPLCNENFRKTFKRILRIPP
T4 sequence (P70174 whole entry): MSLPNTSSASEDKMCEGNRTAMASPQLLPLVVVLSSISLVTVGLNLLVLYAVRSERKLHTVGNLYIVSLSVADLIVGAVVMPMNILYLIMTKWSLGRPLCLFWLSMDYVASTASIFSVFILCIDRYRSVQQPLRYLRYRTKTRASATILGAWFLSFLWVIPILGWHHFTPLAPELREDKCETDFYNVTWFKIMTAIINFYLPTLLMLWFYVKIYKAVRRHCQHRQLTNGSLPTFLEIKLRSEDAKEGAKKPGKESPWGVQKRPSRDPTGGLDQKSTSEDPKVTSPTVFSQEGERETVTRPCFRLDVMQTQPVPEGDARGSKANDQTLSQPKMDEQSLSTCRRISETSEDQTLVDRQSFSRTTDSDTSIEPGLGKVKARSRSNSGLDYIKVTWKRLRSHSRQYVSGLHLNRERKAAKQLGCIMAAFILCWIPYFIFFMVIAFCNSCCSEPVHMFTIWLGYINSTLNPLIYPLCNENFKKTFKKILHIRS

The inhibition is the drop in the measured response relative to a control, in per cent. For the compound `O=C1CSc2cc(OCCCN3CCN(Cc4ccc5ccccc5n4)CC3)ccc2N1` [Example 90, 7-{3-[4-(2-quinolylmethyl)piperazinyl]propoxy}-3,4-dihydro-2H-1,4-benzothiazin-3-one], in data set [1], the inhibition at 10 µM stood at 16%. Also, the Ki on H1 receptor was found to be 5.01 nM. Further, the Ki at LTD4 receptor stood at 9410 nM. Further, at H1, the ED50 is 8.5 mg/kg and the selectivity ratio at 1 h was determined as 1.7.

`Cc1ccc(OCCCN2CCN(Cc3ccc4ccccc4n3)CC2)c2c1NC(=O)CC2` [Example 91, 8-methyl-5-{3-[4-(2-quinolylmethyl)piperazinyl]propoxy}-1,2,3,4-tetrahydroquinolin-2-one]: on H1, the ED50 came out at 10 mg/kg and the selectivity ratio at 1 h came to 35.7.

Regarding `Cc1ccc(OCCCN2CCN(Cc3ccc4ccccc4n3)CC2)c2c1NC(=O)C2(C)C` [Example 92], in data set [1], the inhibition at 10 µM is 42%. Moreover, the Ki at H1 receptor came to 55.7 nM. Moreover, the Ki on LTD4 receptor was found to be 4230 nM. On H1, the ED50 turned out to be 16.5 mg/kg and the selectivity ratio at 1 h turned out to be 0.29.

Turning to `Cc1ccc(OCCN2CCCN(Cc3ccc4ccccc4n3)CC2)c2c1NC(=O)CC2` [Example 61, 8-Methyl-5-{2-[4-(2-quinolylmethyl)-1-homopiperazinyl]ethoxy}-1,2,3,4-tetrahydroquinolin-2-one], the inhibition at 10 µM in data set [1] turned out to be 19%. Besides, the Ki on H1 receptor was 4.69 nM; on LTD4 receptor it was 1610 nM.

As to `CC1(C)C(=O)Nc2cc(OCCCN3CCCN(Cc4ccc5ccccc5n4)CC3)ccc21` [Example 78, 3,3-Dimethyl-6-{3-[4-(2-quinolylmethyl)-1-homopiperazinyl]propoxy}-2,3-dihydro-1H-indol-2-one], the inhibition at 10 µM in data set [1] was determined as 27%. Also, the Ki at H1 receptor worked out at 18.2 nM; at LTD4 receptor it was 7430 nM.

As for `O=c1ccc2ccc(OCCN3CCCN(Cc4ccc5ccccc5n4)CC3)cc2[nH]1` [Example 79, 7-{2-[4-(2-Quinolylmethyl)-1-homopiperazinyl]ethoxy}-1,2-dihydroquinolin-2-one], the inhibition at 10 µM in data set [1] stood at 19%. For the same compound, the Ki amounted to 75.9 nM at H1 receptor and 8610 nM at LTD4 receptor.
